Data as given in patent US11052092B2, “N-{[2-(piperidin-1-yl)phenyl](phenyl)methyl}-2-(3-oxo-3,4-dihydro-2H-1,4-benzoxazin-7-yl)acetamide derivatives and related compounds as ROR-gamma modulators for treating autoimmune diseases” (Genfit, priority 2017, dated 2021).
pIC50: −log10 of the molar value.

How the values were obtained:
[1] = system: Murine EL-4 lymphoma cell line overexpressing human RORγt; assay: IL-17 secretion from EL4 murine lymphoma; assay type: cell-based; details: Mus musculus; human RORγt-transfected EL4 cells, PMA (10 ng/mL) and ionomycin (1 μM), 24 h; read-out: IC50, IL-17 secretion inhibition
Description: Murine EL-4 lymphoma cell line overexpressing human RORγt was used in this functional assay to assess compound ability to inhibit IL-17 cytokine secretion.
EL-4 cells are maintained in a standard culture medium RPMI supplemented with 10% fetal calf serum, 1% sodium pyruvate, 1% essential amino acids and 1% antibiotics at 37° C. in a humidified atmosphere of 5% CO02 and 95% air. Culture medium was changed every 2 days. EL4 cells were transfected with a plasmid encoding hRORγt (sequence identical to published sequence NM 001001523). […] Briefly, 1 μg of DNA/1 million cells was served to transfect EL-4 cells. Cell/DNA suspension was transferred into certified cuvette and the electroporation of RORγt plasmid was carried out using appropriate Nucleofector® program.
Cells were seeded in 96 well plates at a density of 150000 cells/I well then treated with compounds of this invention at indicated concentrations and incubated for 24 hours at 37° C. in a humidified atmosphere of 5% C02 and 95% air. EL-4 cells were pretreated with test compounds (RORγ modulators) and stimulated with PMA (10 ng/mL) and ionomycin (1 μM final concentration) in the presence of test compound concentrations for additional 24 h at 37° C. in a humidified atmosphere of 5% C02 and 95% air. Subsequently, supernatants were collected (after centrifugation at 300 g for 10 minutes) to determine the concentrations of IL-17 by HTRF (CisBio, France) or ELISA (R&D Systems Europe) according to the manufacturer's protocols.

human RORγt = biological target: T1, human RORγt (Homo sapiens, UniProt P51449); assay: RORE Luciferase/RORγt transactivation assay; assay type: cell-based; details: COS-7 cells transfected with human IL-17 promoter luciferase reporter and RORγt plasmid; 20 h with compound; read-out: IC50, RORγt activity inhibition
T1 construct: the full-length cDNA of human RORγt; expressed in transfected cells; host or cells: COS-7 (monkey kidney)
T1 sequence (P51449 1-497 isoform P51449-2): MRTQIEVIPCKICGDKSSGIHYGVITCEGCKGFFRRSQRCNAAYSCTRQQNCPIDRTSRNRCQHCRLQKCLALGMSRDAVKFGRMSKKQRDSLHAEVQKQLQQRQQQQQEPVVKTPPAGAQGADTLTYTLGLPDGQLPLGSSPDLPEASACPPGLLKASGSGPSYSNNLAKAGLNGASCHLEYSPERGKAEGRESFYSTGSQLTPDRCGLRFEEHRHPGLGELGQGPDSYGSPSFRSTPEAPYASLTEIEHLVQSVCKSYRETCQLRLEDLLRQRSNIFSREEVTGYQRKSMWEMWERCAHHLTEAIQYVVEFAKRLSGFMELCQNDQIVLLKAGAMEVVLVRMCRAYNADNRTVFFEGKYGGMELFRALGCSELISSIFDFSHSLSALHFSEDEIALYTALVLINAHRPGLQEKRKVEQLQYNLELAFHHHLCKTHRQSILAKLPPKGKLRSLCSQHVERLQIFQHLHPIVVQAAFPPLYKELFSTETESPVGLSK
Summary of the method: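 COS-7 cells were transiently co-transfected with a human IL-17 promoter (RORE/CNS)–luciferase reporter and a RORγt expression plasmid, then seeded at 10000 cells/well in serum-free, phenol red-free DMEM. Compounds were added at 0.3% DMSO final. Luciferase was read with Steady-Glo, and IC50 and Emax were derived.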

Row | Structure (SMILES) | melting point | pIC50 [1] | pIC50 (human RORγt)
1 | Cc1ccc(C(NC(=O)C2(c3ccc4[nH]cc(CNS(C)(=O)=O)c4c3)CC2)c2ccc(C)o2)c(N2CCCCC2)c1 (stereo not drawn) [Cpd. 119, 1-[3-(methanesulfonamidomethyl)-1H-indol-5-yl]-N-{[4-methyl-2-(piperidin-1-yl)phenyl](5-methylfuran-2-yl)methyl}cyclopropane-1-carboxamide] | 109 °C | > 7.00 | 7.00 to 8.00
2 | Cc1ccc(C(NC(=O)Cc2ccc3c(ccn3C(=O)N3CCOCC3)c2)c2ccc(C)o2)c(N2CCCCC2)c1 (stereo not drawn) [Cpd. 116, N-{[4-methyl-2-(piperidin-1-yl)phenyl](5-methylfuran-2-yl)methyl}-2-[1-(morpholine-4-carbonyl)-1H-indol-5-yl]acetamide] | 88 °C | > 7.00 | 7.00 to 8.00
3 | Cc1ccc(C(NC(=O)Cc2ccc3[nH]c(C)nc3c2)c2ccccc2)c(N2CCCCC2)c1 (stereo not drawn) [Cpd. 75, 2-(2-methyl-1H-1,3-benzodiazol-5-yl)-N-{[4-methyl-2-(piperidin-1-yl)phenyl](phenyl)methyl}acetamide] | 137 °C | 6.00 to 7.00 | 7.00 to 8.00
4 | Cc1ccc(C(NC(=O)Cc2ccc3c(C(=O)CS(C)(=O)=O)c[nH]c3c2)c2ccc(C)o2)c(N2CCCCC2)c1 (stereo not drawn) [Cpd. 117, 2-[3-(2-methanesulfonylacetyl)-1H-indol-6-yl]-N-{[4-methyl-2-(piperidin-1-yl)phenyl](5-methylfuran-2-yl)methyl}acetamide] | 85 °C | 6.00 to 7.00 | 7.00 to 8.00
5 | CC(=O)N1CCc2cc(C3(C(=O)NC(c4ccc(C)o4)c4ccc(C)cc4C)CC3)ccc21 (stereo not drawn) [Cpd. 126, 1-(1-acetyl-2,3-dihydro-1H-indol-5-yl)-N-[(2,4-dimethylphenyl)(5-methylfuran-2-yl)methyl]cyclopropane-1-carboxamide] | – | 6.00 to 7.00 | 7.00 to 8.00
6 | Cc1ccc(C(NC(=O)Cc2ccc3c(c2)C(C)(O)C(=O)N3C)c2ccc(C)o2)c(N2CCCCC2)c1 (stereo not drawn) [Cpd. 39, 2-(3-hydroxy-1,3-dimethyl-2-oxo-2,3-dihydro-1H-indol-5-yl)-N-{[4-methyl-2-(piperidin-1-yl)phenyl](5-methylfuran-2-yl)methyl}acetamide] | – | 6.00 to 7.00 | 6.00 to 7.00
7 | Cc1ccc(C(NC(=O)Cc2ccc3c(c2)OCC(=O)N3)c2ccc(C)o2)c(C)c1 (stereo not drawn) [Cpd. 33, N-[(2,4-dimethylphenyl)(5-methylfuran-2-yl)methyl]-2-(3-oxo-3,4-dihydro-2H-1,4-benzoxazin-7-yl)acetamide] | – | 6.00 to 7.00 | 6.00 to 7.00
8 | Cc1ccc(C(NC(=O)Cc2ccc3[nH]cc(C(=O)CS(C)(=O)=O)c3c2)c2ccc(C)o2)c(N2CCCCC2)c1 (stereo not drawn) [Cpd. 103, 2-[3-(2-methanesulfonylacetyl)-1H-indol-5-yl]-N-{[4-methyl-2-(piperidin-1-yl)phenyl](5-methylfuran-2-yl)methyl}acetamide] | – | > 7.00 | 7.00 to 8.00
9 | Cc1ccc(C(NC(=O)Cc2ccc3[nH]cc(C(=O)CS(C)(=O)=O)c3c2)c2ccc(C)o2)c(C)c1 (stereo not drawn) [Cpd. 107, N-[(2,4-dimethylphenyl)(5-methylfuran-2-yl)methyl]-2-[3-(2-methanesulfonylacetyl)-1H-indol-5-yl]acetamide] | – | 5.00 to 6.00 | 6.00 to 7.00
10 | COc1ccc(C(NC(=O)Cc2ccc3[nH]c(=O)cc(C)c3c2)c2ccccc2)c(N2CCCCC2)c1 (stereo not drawn) [Cpd. 10, N-{[4-methoxy-2-(piperidin-1-yl)phenyl](phenyl)methyl}-2-(4-methyl-2-oxo-1,2-dihydroquinolin-6-yl)acetamide] | – | 5.00 to 6.00 | 5.00 to 6.00
11 | Cc1ccc(C(NC(=O)Cc2ccc3c(c2)CC(=O)N3C)c2ccc(C)o2)c(N2CCCCC2)c1 (stereo not drawn) [Cpd. 38, N-{[4-methyl-2-(piperidin-1-yl)phenyl](5-methylfuran-2-yl)methyl}-2-(1-methyl-2-oxo-2,3-dihydro-1H-indol-5-yl)acetamide] | – | 6.00 to 7.00 | 7.00 to 8.00
12 | Cc1ccc(C(NC(=O)Cc2ccc3[nH]cc(C(=O)N4CCOCC4)c3c2)c2ccc(C)o2)c(N2CCCCC2)c1 (stereo not drawn) [Cpd. 120, N-{[4-methyl-2-(piperidin-1-yl)phenyl](5-methylfuran-2-yl)methyl}-2-[3-(morpholine-4-carbonyl)-1H-indol-5-yl]acetamide] | – | > 7.00 | 7.00 to 8.00
13 | Cc1ccc(C(NC(=O)Cc2ccc3c(c2)OCC(=O)N3)c2ccc(C)o2)c(N2CCCCC2)c1 (stereo not drawn) [Cpd. 35, N-{[4-methyl-2-(piperidin-1-yl)phenyl](5-methylfuran-2-yl)methyl}-2-(3-oxo-3,4-dihydro-2H-1,4-benzoxazin-7-yl)acetamide] | – | > 7.00 | 7.00 to 8.00
14 | Cc1ccc(C(NC(=O)C2(c3ccc4c(c3)CC(=O)N4)CC2)c2ccc(C)o2)c(C)c1 (stereo not drawn) [Cpd. 61, N-[(2,4-dimethylphenyl)(5-methylfuran-2-yl)methyl]-1-(2-oxo-2,3-dihydro-1H-indol-5-yl)cyclopropane-1-carboxamide] | – | > 7.00 | > 8.00
15 | Cc1ccc(C(NC(=O)Cc2ccc3c(c2)CN(S(C)(=O)=O)C3)c2ccc(C)o2)c(N2CCCCC2)c1 (stereo not drawn) [Cpd. 41, 2-(2-methanesulfonyl-2,3-dihydro-1H-isoindol-5-yl)-N-{[4-methyl-2-(piperidin-1-yl)phenyl](5-methylfuran-2-yl)methyl}acetamide] | – | > 7.00 | 7.00 to 8.00
16 | Cc1ccc(C(NC(=O)Cc2ccc3ccn(C(=O)N4CCOCC4)c3c2)c2ccc(C)o2)c(N2CCCCC2)c1 (stereo not drawn) [Cpd. 114, N-{[4-methyl-2-(piperidin-1-yl)phenyl](5-methylfuran-2-yl)methyl}-2-[1-(morpholine-4-carbonyl)-1H-indol-6-yl]acetamide] | – | 6.00 to 7.00 | 7.00 to 8.00
17 | Cc1ccc(C(NC(=O)C2(c3ccc4c(c3)CN(S(C)(=O)=O)C4)CC2)c2ccc(Cl)o2)c(N2CCCC2)c1 (stereo not drawn) [Cpd. 80, N-[(5-chlorofuran-2-yl)[4-methyl-2-(pyrrolidin-1-yl)phenyl]methyl]-1-(2-methanesulfonyl-2,3-dihydro-1H-isoindol-5-yl)cyclopropane-1-carboxamide] | – | 6.00 to 7.00 | 7.00 to 8.00
18 | Cc1ccc(C(NC(=O)Cc2ccc3[nH]cc(CCO)c3c2)c2ccc(C)o2)c(N2CCCCC2)c1 (stereo not drawn) [Cpd. 57, 2-[3-(2-hydroxyethyl)-1H-indol-5-yl]-N-{[4-methyl-2-(piperidin-1-yl)phenyl](5-methylfuran-2-yl)methyl}acetamide] | – | > 7.00 | 7.00 to 8.00
19 | Cc1ccc(C(NC(=O)C2(c3ccc4[nH]cc(CCO)c4c3)CC2)c2ccc(Cl)o2)c(C)c1 (stereo not drawn) [Cpd. 62, N-[(5-chlorofuran-2-yl)(2,4-dimethylphenyl)methyl]-1-[3-(2-hydroxyethyl)-1H-indol-5-yl]cyclopropane-1-carboxamide] | – | > 7.00 | 7.00 to 8.00
20 | Cc1ccc(C(NC(=O)Cc2ccc3[nH]cc(CO)c3c2)c2ccc(C)o2)c(N2CCCCC2)c1 (stereo not drawn) [Cpd. 58, 2-[3-(hydroxymethyl)-1H-indol-5-yl]-N-{[4-methyl-2-(piperidin-1-yl)phenyl](5-methylfuran-2-yl)methyl}acetamide] | – | > 7.00 | 7.00 to 8.00
21 | Cc1ccc(C(NC(=O)Cc2ccc3[nH]cc(C(=O)CS(C)(=O)=O)c3c2)c2ccc(C)o2)c(Br)c1 (stereo not drawn) [Cpd. 104, N-[(2-bromo-4-methylphenyl)(5-methylfuran-2-yl)methyl]-2-[3-(2-methanesulfonylacetyl)-1H-indol-5-yl]acetamide] | – | 5.00 to 6.00 | 6.00 to 7.00
22 | Cc1ccc(C(NC(=O)Cc2ccc3c(c2)CC(=O)N3)c2ccc(Cl)o2)c(N2CCCCC2)c1 (stereo not drawn) [Cpd. 83, N-[(5-chlorofuran-2-yl)[4-methyl-2-(piperidin-1-yl)phenyl]methyl]-2-(2-oxo-2,3-dihydro-1H-indol-5-yl)acetamide] | – | 6.00 to 7.00 | 7.00 to 8.00
